Assay results taken from publication PMC10138554, “Insights into the Microbicidal, Antibiofilm, Antioxidant and Toxicity Profile of New O-Aryl-Carbamoyl-Oxymino-Fluorene Derivatives” (International Journal of Molecular Sciences, 2023).
Values after ≈ are worked out from the molar mass of the structure shown.

Experiment: Toxicity on the Artemia franciscana Kellog crustacean species (lethality of nauplii)
Format: in vivo
Details: Artemia franciscana Kellog (brine shrimp nauplii), in vivo, other: nauplii placed in contact with the test suspensions, four-parameter logistic model
Description: The oocysts (Great Salt Lake, USA) provided by S.K. Trading were grown on artificial seawater medium (Coral Marine, Grotech), dissolved in distilled water with a few minutes of sonication, at 30 g/L concentration. The test was carried out in a 24-well plate, using three replicates. Because of their low solubility, the compounds 1a–d were suspended in the culture medium using sodium alginate (0.045%) (also used a negative control), the testing being carried out at the solubility limit. The concentrations 100, 50, 25, 12.5 and 6.2 μg/mL used for each substance were obtained by successive dilutions starting from the initial suspension. Between 10 and 15 nauplii per well were collected and placed in contact with the test suspensions (1.5 mL/well). All nauplii, dead or alive, were counted and recorded within 24 h of being placed in contact with the tested suspensions. The non-linear modeling of the concentration-lethality relationship was achieved through a four-parameter logistics model (4PL), implemented in several robust variants for estimating parameters in the R package “dr4pl” [78].

Q: For O=C(Nc1ccc(Cl)c(Cl)c1)ON=C1c2ccccc2-c2ccccc21 [Compound 1d, 9-((3,4-dichloro-phenyl)carbamoyloxymino)fluoren], which LC50 at 24 h is on record?
A: 14.6 µg/mL (≈ 38.2 µM)
